{"source": "patent US12728186B2", "about": "“Methods and kits for preparing pathogen-inactivated whole blood” (priority 2018, dated 2026)", "assay": "Residual unreacted amustaline by LCMS, Example 3 (1-container vs 3-container kits, PVC1/PVC2/EVA bags)", "type": "physicochemical", "procedure": "In another study, pathogen-inactivated whole blood was prepared using amustaline and GSH, in 1-container or 3-container kits of the present disclosure, with the 3-container kits comprising second and third bags (e.g., transfer/storage containers) from three different sources (e.g., different plastics materials). The three different transfer/storage containers included a 600 mL container, comprising Transfufol 3226 PVC film (“PVC1”), a second 600 mL container from a different manufacturer comprising Transfufol 3226 PVC film (“PVC2”), and a 750 mL container from Cerus, comprising EVA (ethylene-vinyl acetate) 1800 film (“EVA”). Six ABO-matched whole blood units in anticoagulant were pooled and split into seven units of ~450 mL each. The seven whole blood units were subjected to pathogen inactivation under conditions of no transfer step between containers (e.g., processing performed in the 1-container kit), or two transfer steps between containers (e.g., processing performed in the 3-container kits) of the indicated storage/transfer bag source (Table 4). Amustaline and GSH were added to the whole blood units as described previously by sterile docking of a filter set to the tubing of an input port of the first containers, which contained the whole blood. Unit 1 was treated with amustaline and GSH at 0.2 mM and 2.0 mM final concentrations, respectively, in the first container and incubated at 22° C., with samples taken at 18, 20, 22 and 24 hours, with no container transfers. For units 2-7, amustaline and GSH were added to the whole blood (0.2 mM and 2.0 mM final concentrations, respectively) in the first container, followed by transfer to the second container and incubation at 22° C. for 18 hours. At 18 hours, samples were taken along with transfer of the mixture to the third container and further incubation at 22° C., with additional sampling at 2 hour intervals (20, 22 and 24 hr).\nAll samples were analyzed by LCMS to determine the level of residual, unreacted amustaline as previously described. […] Following a second transfer (i.e., to third container) at 18 hr and further incubation at 22° C., residual amustaline was less than 1 nM at the 20 hr time point (i.e., 2 hours after bag transfer) for kits with two different container types and approaching 1 nM for kits with the third container type.", "note": "“And” between values parts separate entries of the source, which are not always exact repeats. Equal entries are not always repeated.", "data": [{"smiles": "O=C(CCNc1c2ccccc2nc2ccccc12)OCCN(CCCl)CCCl", "note": "[amustaline]", "values": [{"measurement": "Residual amustaline levels in pathogen-inactivated whole blood, 18 hr", "setting": "18 hr (at transfer to third container), Units 2-3, 3 bag kit, 2x transfer, PVC1 transfer bags, 22° C.", "result": "1.75 nM and 1.52 nM"}, {"measurement": "Residual amustaline levels in pathogen-inactivated whole blood, 18 hr", "setting": "18 hr (at transfer to third container), Units 4-5, 3 bag kit, 2x transfer, PVC2 transfer bags, 22° C.", "result": "1.45 nM and 1.48 nM"}, {"measurement": "Residual amustaline levels in pathogen-inactivated whole blood, 18 hr", "setting": "18 hr (at transfer to third container), Units 6-7, 3 bag kit, 2x transfer, EVA transfer bags, 22° C.", "result": "3.11 nM and 3.51 nM"}, {"measurement": "Residual amustaline levels in pathogen-inactivated whole blood, 18 hr", "setting": "18 hr, Unit 1, 1 bag kit, no transfer, 22° C.", "result": 2.16, "unit": "nM"}, {"measurement": "residual amustaline at the 20 hr time point, kits with the third container type", "setting": "20 hr (2 hours after bag transfer at 18 hr), 3-container kits, third container type, 22° C.", "result": "~1", "unit": "nM"}, {"measurement": "residual amustaline at the 20 hr time point, kits with two container types", "setting": "20 hr (2 hours after bag transfer at 18 hr), 3-container kits, two different container types, 22° C.", "result": "less than 1 nM"}, {"measurement": "Residual amustaline levels in pathogen-inactivated whole blood, 20 hr", "setting": "20 hr (third container from 18 hr), Units 2-3, 3 bag kit, 2x transfer, PVC1 transfer bags, 22° C.", "result": "0.88 nM and 0.78 nM"}, {"measurement": "Residual amustaline levels in pathogen-inactivated whole blood, 20 hr", "setting": "20 hr (third container from 18 hr), Units 4-5, 3 bag kit, 2x transfer, PVC2 transfer bags, 22° C.", "result": "0.85 nM and 0.87 nM"}, {"measurement": "Residual amustaline levels in pathogen-inactivated whole blood, 20 hr", "setting": "20 hr (third container from 18 hr), Units 6-7, 3 bag kit, 2x transfer, EVA transfer bags, 22° C.", "result": "1.14 nM and 1.22 nM"}, {"measurement": "Residual amustaline levels in pathogen-inactivated whole blood, 20 hr", "setting": "20 hr, Unit 1, 1 bag kit, no transfer, 22° C.", "result": 1.99, "unit": "nM"}, {"measurement": "Residual amustaline levels in pathogen-inactivated whole blood, 22 hr", "setting": "22 hr (third container from 18 hr), Units 2-3, 3 bag kit, 2x transfer, PVC1 transfer bags, 22° C.", "result": "BLOQ (BLOQ = Below Limit of Quantitation (e.g., <0.75 nM))"}, {"measurement": "Residual amustaline levels in pathogen-inactivated whole blood, 22 hr", "setting": "22 hr (third container from 18 hr), Units 4-5, 3 bag kit, 2x transfer, PVC2 transfer bags, 22° C.", "result": "BLOQ (BLOQ = Below Limit of Quantitation (e.g., <0.75 nM))"}, {"measurement": "Residual amustaline levels in pathogen-inactivated whole blood, 22 hr", "setting": "22 hr (third container from 18 hr), Units 6-7, 3 bag kit, 2x transfer, EVA transfer bags, 22° C.", "result": "BLOQ (BLOQ = Below Limit of Quantitation (e.g., <0.75 nM))"}, {"measurement": "level of residual amustaline at 22 hr and 24 hr, 3-container kits", "setting": "22 hr and 24 hr (4 or 6 hours after bag transfer), all samples in 3-container kits, three container types", "result": "below the limit of quantitation"}, {"measurement": "Residual amustaline levels in pathogen-inactivated whole blood, 22 hr", "setting": "22 hr, Unit 1, 1 bag kit, no transfer, 22° C.", "result": 1.46, "unit": "nM"}, {"measurement": "Residual amustaline levels in pathogen-inactivated whole blood, 24 hr", "setting": "24 hr (third container from 18 hr), Units 2-3, 3 bag kit, 2x transfer, PVC1 transfer bags, 22° C.", "result": "BLOQ (BLOQ = Below Limit of Quantitation (e.g., <0.75 nM))"}, {"measurement": "Residual amustaline levels in pathogen-inactivated whole blood, 24 hr", "setting": "24 hr (third container from 18 hr), Units 4-5, 3 bag kit, 2x transfer, PVC2 transfer bags, 22° C.", "result": "BLOQ (BLOQ = Below Limit of Quantitation (e.g., <0.75 nM))"}, {"measurement": "Residual amustaline levels in pathogen-inactivated whole blood, 24 hr", "setting": "24 hr (third container from 18 hr), Units 6-7, 3 bag kit, 2x transfer, EVA transfer bags, 22° C.", "result": "BLOQ (BLOQ = Below Limit of Quantitation (e.g., <0.75 nM))"}, {"measurement": "Residual amustaline levels in pathogen-inactivated whole blood, 24 hr", "setting": "24 hr, Unit 1, 1 bag kit, no transfer, 22° C.", "result": 1.54, "unit": "nM"}]}]}
